# Results as given in US10954228B2 (NATIONAL INSTITUTES OF HEALTH, UNITED STATES DEPARTMENT OF …, priority 2016, dated 2021).
# Key:
# [1] = molecular target: Human LDHA (Homo sapiens (Human), UniProt P00338); experiment: human LDHA primary biochemical assay; settings: biochemical LDHA inhibitory activity, assay of Example 1; activity level classes defined in nM
# Procedure, shortened: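 Human LDHA at 2 nM with 0.06 mM NADH and 0.2 mM sodium pyruvate in 200 mM Tris HCl pH 7.4, 100 μM EDTA, 0.01% TWEEN-20 (final). NADH consumption coupled to resazurin/diaphorase (0.037 mM; 0.133 mg/mL); inhibition read by fluorescence.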
# [2] = tested on: MiaPaCa2 cells; experiment: cell-based HT lactate assay by colorimetric/fluorometric detection (cellular inhibition of lactate production)
# Procedure, shortened: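 Miniaturised colorimetric/fluorometric lactate kit assay, about 3.5 h total, measuring cellular lactate production. MiaPaCa2 seeded at 500 cells/well, a density chosen so lactate falls near 90% of the standard curve range.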
# [3] = Homo sapiens, MIA PaCa-2, assay of Example 6
structure (smiles),measurement,setting,value
"NS(=O)(=O)c1ccc(Cc2c(-c3ccc(F)c(-c4ccc(C(F)(F)F)cc4)c3)nn(-c3nc(C(=O)O)cs3)c2CC2CC2)cc1F [Compound 138, 2-(5-(cyclopropylmethyl)-3-(6-fluoro-4′-(trifluoromethyl)-[1,1′-biphenyl]-3-yl)-4-(3-fluoro-4-sulfamoylbenzyl)-1H-pyrazol-1-yl)thiazole-4-carboxylic acid]",IC50,[1],< 100 nM
same,IC50,[2]; [3],< 1 µM
"NS(=O)(=O)c1ccc(Cc2c(-c3ccc(F)c(-c4ccc(Cl)cc4)c3)nn(-c3nc(C(=O)O)cs3)c2CC2CC2)cc1F [Compound 139, 2-(3-(4′-chloro-6-fluoro-[1,1′-biphenyl]-3-yl)-5-(cyclopropylmethyl)-4-(3-fluoro-4-sulfamoylbenzyl)-1H-pyrazol-1-yl)thiazole-4-carboxylic acid]",IC50,[1],< 100 nM
same,IC50,[2]; [3],< 1 µM
Cc1cccc(-c2cc(-c3nn(-c4nc(C(=O)O)cs4)c(CC4CC4)c3Cc3ccc(S(N)(=O)=O)c(F)c3)ccc2F)c1 [Compound 141],IC50,[1],< 100 nM
same,IC50,[2]; assay of Example 6,< 1 µM
"NS(=O)(=O)c1ccc(Cc2c(-c3ccc(F)c(-c4ccc5c(c4)CCCC5)c3)nn(-c3nc(C(=O)O)cs3)c2CC2CC2)cc1F [Compound 143, 2-(5-(cyclopropylmethyl)-3-(4-fluoro-3-(5,6,7,8-tetrahydronaphthalen-2-yl)phenyl)-4-(3-fluoro-4-sulfamoylbenzyl)-1H-pyrazol-1-yl)thiazole-4-carboxylic acid]",IC50,[1],< 100 nM
same,IC50,[2]; [3],< 1 µM
"NS(=O)(=O)c1ccc(Cc2c(-c3ccc(F)c(-c4ccc(Cl)c(F)c4)c3)nn(-c3nc(C(=O)O)cs3)c2CC2CC2)cc1F [Compound 144, 2-(3-(4′-chloro-3′,6-difluoro-[1,1′-biphenyl]-3-yl)-5-(cyclopropylmethyl)-4-(3-fluoro-4-sulfamoylbenzyl)-1H-pyrazol-1-yl)thiazole-4-carboxylic acid]",IC50,[1],< 100 nM
same,IC50,[2]; [3],< 1 µM
"NS(=O)(=O)c1ccc(Cc2c(-c3ccc(F)c(C4=CCCCC4)c3)nn(-c3nc(C(=O)O)cs3)c2CC2CC2)cc1F [Compound 146, 2-(5-(cyclopropylmethyl)-3-(6-fluoro-2′,3′,4′,5′-tetrahydro-[1,1′-biphenyl]-3-yl)-4-(3-fluoro-4-sulfamoylbenzyl)-1H-pyrazol-1-yl)thiazole-4-carboxylic acid]",IC50,[1],< 100 nM
same,IC50,[2]; [3],< 1 µM
"NS(=O)(=O)c1ccc(Cc2c(-c3ccc(F)c(-c4cccc(Cl)c4)c3)nn(-c3nc(C(=O)O)cs3)c2CC2CC2)cc1F [Compound 149, 2-(3-(3′-chloro-6-fluoro-[1,1′-biphenyl]-3-yl)-5-(cyclopropylmethyl)-4-(3-fluoro-4-sulfamoylbenzyl)-1H-pyrazol-1-yl)thiazole-4-carboxylic acid]",IC50,[1],< 100 nM
same,IC50,[2]; [3],< 1 µM
"COc1ccc(-c2cc(-c3nn(-c4nc(C(=O)O)cs4)c(CC4CC4)c3Cc3ccc(S(N)(=O)=O)c(F)c3)ccc2F)cc1C [Compound 150, 2-(5-(cyclopropylmethyl)-3-(6-fluoro-4′-methoxy-3′-methyl-[1,1′-biphenyl]-3-yl)-4-(3-fluoro-4-sulfamoylbenzyl)-1H-pyrazol-1-yl)thiazole-4-carboxylic acid]",IC50,[1],< 100 nM
same,IC50,[2]; [3],< 1 µM
"Cc1cc(C)cc(-c2cc(-c3nn(-c4nc(C(=O)O)cs4)c(CC4CC4)c3Cc3ccc(S(N)(=O)=O)c(F)c3)ccc2F)c1 [Compound 151, 2-(5-(cyclopropylmethyl)-3-(6-fluoro-3′,5′-dimethyl-[1,1′-biphenyl]-3-yl)-4-(3-fluoro-4-sulfamoylbenzyl)-1H-pyrazol-1-yl)thiazole-4-carboxylic acid]",IC50,[1],100 to 1000 nM
same,IC50,[2]; [3],< 1 µM
"COc1cc(OC)cc(-c2cc(-c3nn(-c4nc(C(=O)O)cs4)c(CC4CC4)c3Cc3ccc(S(N)(=O)=O)c(F)c3)ccc2F)c1 [Compound 153, 2-(5-(cyclopropylmethyl)-3-(6-fluoro-3′,5′-dimethoxy-[1,1′-biphenyl]-3-yl)-4-(3-fluoro-4-sulfamoylbenzyl)-1H-pyrazol-1-yl)thiazole-4-carboxylic acid]",IC50,[1],< 100 nM
same,IC50,[2]; [3],< 1 µM
"NS(=O)(=O)c1ccc(Cc2c(-c3ccc(F)c(-c4ccc5c(c4)CCC5)c3)nn(-c3nc(C(=O)O)cs3)c2CC2CC2)cc1F [Compound 155, 2-(5-(cyclopropylmethyl)-3-(3-(2,3-dihydro-1H-inden-5-yl)-4-fluorophenyl)-4-(3-fluoro-4-sulfamoylbenzyl)-1H-pyrazol-1-yl)thiazole-4-carboxylic acid]",IC50,[1],< 100 nM
same,IC50,[2]; [3],< 1 µM
"NS(=O)(=O)c1ccc(Cc2c(-c3ccc(F)c(-c4cc(F)cc(F)c4)c3)nn(-c3nc(C(=O)O)cs3)c2CC2CC2)cc1F [Compound 156, 2-(5-(cyclopropylmethyl)-4-(3-fluoro-4-sulfamoylbenzyl)-3-(3′,5′,6-trifluoro-[1,1′-biphenyl]-3-yl)-1H-pyrazol-1-yl)thiazole-4-carboxylic acid]",IC50,[1],< 100 nM
same,IC50,[2]; [3],< 1 µM
"NS(=O)(=O)c1ccc(Cc2c(-c3ccc(F)c(-c4cc(Cl)cc(Cl)c4)c3)nn(-c3nc(C(=O)O)cs3)c2CC2CC2)cc1F [Compound 157, 2-(5-(cyclopropylmethyl)-3-(3′,5′-dichloro-6-fluoro-[1,1′-biphenyl]-3-yl)-4-(3-fluoro-4-sulfamoylbenzyl)-1H-pyrazol-1-yl)thiazole-4-carboxylic acid]",IC50,[1],100 to 1000 nM
same,IC50,[2]; [3],< 1 µM
"NS(=O)(=O)c1ccc(Cc2c(-c3cccc(-c4ccc(Cl)c(F)c4)c3)nn(-c3nc(C(=O)O)cs3)c2CC2CC2)cc1F [Compound 164, 2-(3-(4′-chloro-3′-fluoro-[1,1′-biphenyl]-3-yl)-5-(cyclopropylmethyl)-4-(3-fluoro-4-sulfamoylbenzyl)-1H-pyrazol-1-yl)thiazole-4-carboxylic acid]",IC50,[1],< 100 nM
same,IC50,[2]; [3],< 1 µM
"COc1ccc(-c2cccc(-c3nn(-c4nc(C(=O)O)cs4)c(CC4CC4)c3Cc3ccc(S(N)(=O)=O)c(F)c3)c2)cc1C [Compound 165, 2-(5-(cyclopropylmethyl)-4-(3-fluoro-4-sulfamoylbenzyl)-3-(4′-methoxy-3′-methyl-[1,1′-biphenyl]-3-yl)-1H-pyrazol-1-yl) thiazole-4-carboxylic acid]",IC50,[1],< 100 nM
same,IC50,[2]; [3],< 1 µM
"NS(=O)(=O)c1ccc(Cc2c(-c3cccc(-c4ccc(Cl)cc4)c3)nn(-c3nc(C(=O)O)cs3)c2CC2CC2)cc1F [Compound 166, 2-(3-(4′-chloro-[1,1′-biphenyl]-3-yl)-5-(cyclopropylmethyl)-4-(3-fluoro-4-sulfamoylbenzyl)-1H-pyrazol-1-yl)thiazole-4-carboxylic acid]",IC50,[1],< 100 nM
same,IC50,[2]; [3],< 1 µM
"Cc1ccc(-c2cccc(-c3nn(-c4nc(C(=O)O)cs4)c(CC4CC4)c3Cc3ccc(S(N)(=O)=O)c(F)c3)c2)cc1F [Compound 167, 2-(5-(cyclopropylmethyl)-3-(3′-fluoro-4′-methyl-[1,1′-biphenyl]-3-yl)-4-(3-fluoro-4-sulfamoylbenzyl)-1H-pyrazol-1-yl)thiazole-4-carboxylic acid]",IC50,[1],< 100 nM
same,IC50,[2]; [3],< 1 µM
"CC(C)(C)c1ccc(-c2cccc(-c3nn(-c4nc(C(=O)O)cs4)c(CC4CC4)c3Cc3ccc(S(N)(=O)=O)c(F)c3)c2)cc1 [Compound 168, 2-(3-(4′-(tert-butyl)-[1,1′-biphenyl]-3-yl)-5-(cyclopropylmethyl)-4-(3-fluoro-4-sulfamoylbenzyl)-1H-pyrazol-1-yl)thiazole-4-carboxylic acid]",IC50,[1],100 to 1000 nM
same,IC50,[2]; [3],< 1 µM
"CC(C)c1ccc(-c2cccc(-c3nn(-c4nc(C(=O)O)cs4)c(CC4CC4)c3Cc3ccc(S(N)(=O)=O)c(F)c3)c2)cc1 [Compound 169, 2-(5-(cyclopropylmethyl)-4-(3-fluoro-4-sulfamoylbenzyl)-3-(4′-isopropyl-[1,1′-biphenyl]-3-yl)-1H-pyrazol-1-yl)thiazole-4-carboxylic acid]",IC50,[1],< 100 nM
same,IC50,[2]; [3],< 1 µM
"CC(C)c1cccc(-c2cccc(-c3nn(-c4nc(C(=O)O)cs4)c(CC4CC4)c3Cc3ccc(S(N)(=O)=O)c(F)c3)c2)c1 [Compound 173, 2-(5-(cyclopropylmethyl)-4-(3-fluoro-4-sulfamoylbenzyl)-3-(3′-isopropyl-[1,1′-biphenyl]-3-yl)-1H-pyrazol-1-yl)thiazole-4-carboxylic acid]",IC50,[1],< 100 nM
same,IC50,[2]; [3],> 57 µM
"NS(=O)(=O)c1ccc(Cc2c(-c3cccc(-c4ccc5c(c4)CCCC5)c3)nn(-c3nc(C(=O)O)cs3)c2CC2CC2)cc1F [Compound 174, 2-(5-(cyclopropylmethyl)-4-(3-fluoro-4-sulfamoylbenzyl)-3-(3-(5,6,7,8-tetrahydronaphthalen-2-yl)phenyl)-1H-pyrazol-1-yl)thiazole-4-carboxylic acid]",IC50,[1],100 to 1000 nM
same,IC50,[2]; [3],> 57 µM
"NS(=O)(=O)c1ccc(Cc2c(-c3cccc(-c4cccc(Cl)c4)c3)nn(-c3nc(C(=O)O)cs3)c2CC2CC2)cc1F [Compound 175, 2-(3-(3′-chloro-[1,1′-biphenyl]-3-yl)-5-(cyclopropylmethyl)-4-(3-fluoro-4-sulfamoylbenzyl)-1H-pyrazol-1-yl)thiazole-4-carboxylic acid]",IC50,[1],< 100 nM
same,IC50,[2]; [3],> 57 µM
"N#Cc1ccc(-c2cccc(-c3nn(-c4nc(C(=O)O)cs4)c(CC4CC4)c3Cc3ccc(S(N)(=O)=O)c(F)c3)c2)cc1 [Compound 176, 2-(3-(4′-cyano-[1,1′-biphenyl]-3-yl)-5-(cyclopropylmethyl)-4-(3-fluoro-4-sulfamoylbenzyl)-1H-pyrazol-1-yl)thiazole-4-carboxylic acid]",IC50,[1],< 100 nM
same,IC50,[2]; [3],> 57 µM
"NS(=O)(=O)c1ccc(Cc2c(-c3cccc(-c4cc(F)cc(F)c4)c3)nn(-c3nc(C(=O)O)cs3)c2CC2CC2)cc1F [Compound 177, 2-(5-(cyclopropylmethyl)-3-(3′,5′-difluoro-[1,1′-biphenyl]-3-yl)-4-(3-fluoro-4-sulfamoylbenzyl)-1H-pyrazol-1-yl)thiazole-4-carboxylic acid]",IC50,[1],< 100 nM
same,IC50,[2]; [3],> 57 µM
